Data: patent US10611750B2, “Tetrahydroquinoline compositions as bet bromodomain inhibitors” (FORMA Therapeutics, Inc., priority 2013, dated 2020)

Experiments:
[1] = target: T1, BRD4 Bromodomain 1 (BRD4 BD1) (Homo sapiens, UniProt O60885); experiment: AlphaScreen binding assay, BRD4 BD1; details: His-tagged BRD4 BD1 50 nM, biotinylated H4 (1-21) K5/8/12/16 tetra-acetylated peptide 50 nM, compounds listed under IC50 range headings
T1 construct: 44-168 and BRD4 BD2
How it was run: (§1)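 Compound dilution series were mixed with His-tagged BRD4 bromodomain and biotinylated tetra-acetylated H4 (1-21) peptide at pH 7.3 (BD1 and peptide at 50 nM, BD2 and peptide at 100 nM). Donor and acceptor beads were then added, and plates were equilibrated at least 1 h before reading. IC50 values were fitted with a four-parameter logistic model.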

[2] = system: acute myelocytic leukemia (AML) cell line MV4-11; experiment: Oncology cell growth assay (3-day proliferation, CellTiter-Glo); type: cell-based; details: Homo sapiens, MV4-11, 72 h, MV4-11 cells, 3000 cells/well, compounds listed under IC50 range headings, read-out: MV411 IC50 (gIC50, inhibition of proliferation)
How it was run: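 A 3-day proliferation test used MV4-11 cells seeded at 3000 per well with eight compound concentrations (10 μM top, 3-fold dilution) at 37° C in 5% CO2. CellTiter-Glo luminescence defined viable cell signal. A four-parameter logistic curve against DMSO and background wells gave the gIC50.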

[3] = target: T2, BRD4 Bromodomain 2 (BRD4 BD2) (Homo sapiens, UniProt O60885); experiment: AlphaScreen binding assay, BRD4 BD2; details: His-tagged BRD4 BD2 100 nM, biotinylated H4 (1-21) K5/8/12/16 tetra-acetylated peptide 100 nM, compounds listed under IC50 range headings
T2 construct: 333-460 were cloned, expressed, and purified to homogeneity
How it was run: as §1

| IC50 [1] | IC50 [2] | IC50 [3] | SMILES |
| --- | --- | --- | --- |
| 100 to 1000 nM | < 500 nM | < 50 nM | COC(=O)N1c2ccc(-c3cnn(C4CCNCC4)c3)c(Oc3ccc(F)cc3C#N)c2CC[C@@H]1C [I-133, (S)-methyl 5-(2-cyano-4-fluorophenoxy)-2-methyl-6-(1-(piperidin-4-yl)-1H-pyrazol-4-yl)-3,4-dihydroquinoline-1(2H)-carboxylate] |
| 100 to 1000 nM | < 500 nM | < 50 nM | COC(=O)N1c2ccc(-c3cnn(C4CCNCC4)c3)c(Oc3ccc(C#N)cc3Cl)c2CC[C@@H]1C [I-134, (S)-methyl 5-(2-chloro-4-cyanophenoxy)-2-methyl-6-(1-(piperidin-4-yl)-1H-pyrazol-4-yl)-3,4-dihydroquinoline-1(2H)-carboxylate] |
| 100 to 1000 nM | < 500 nM | < 50 nM | COC(=O)N1c2ccc(-c3cnn(C4CCNCC4)c3)c(Oc3ccc(C#N)cc3F)c2CC[C@@H]1C [I-135, (S)-methyl 5-(4-cyano-2-fluorophenoxy)-2-methyl-6-(1-(piperidin-4-yl)-1H-pyrazol-4-yl)-3,4-dihydroquinoline-1(2H)-carboxylate] |
| 100 to 1000 nM | < 500 nM | < 50 nM | CC(=O)N1c2ccc(-c3cnn(C4CCNCC4)c3)c(Oc3ccccc3C#N)c2CC[C@@H]1C [I-136, (S)-2-(1-acetyl-2-methyl-6-(1-(piperidin-4-yl)-1H-pyrazol-4-yl)-1,2,3,4-tetrahydroquinolin-5-yloxy)benzonitrile] |
| 100 to 1000 nM | < 500 nM | < 50 nM | COC(=O)N1c2ccc(-c3cnn(C4CCNCC4)c3)c(Oc3ccccc3C#N)c2CC[C@@H]1C [I-137, methyl (S)-5-(2-cyanophenoxy)-2-methyl-6-(1-(piperidin-4-yl)-1H-pyrazol-4-yl)-3,4-dihydroquinoline-1(2H)-carboxylate] |
| 1000 to 10000 nM | < 500 nM | 50 to 500 nM | COC(=O)N1c2ccc(-c3cnn(C4CCNCC4)c3)c(Oc3ncccc3C#N)c2CC[C@@H]1C [I-147, (S)-methyl 5-(3-cyanopyridin-2-yloxy)-2-methyl-6-(1-(piperidin-4-yl)-1H-pyrazol-4-yl)-3,4-dihydroquinoline-1(2H)-carboxylate] |
| 100 to 1000 nM | < 500 nM | < 50 nM | COC(=O)N1c2ccc(-c3cnn(C4CCNCC4)c3)c(Oc3cccc(F)c3C#N)c2CC[C@@H]1C [I-148, (S)-methyl 5-(2-cyano-3-fluorophenoxy)-2-methyl-6-(1-(piperidin-4-yl)-1H-pyrazol-4-yl)-3,4-dihydroquinoline-1(2H)-carboxylate] |
| 100 to 1000 nM | < 500 nM | < 50 nM | COC(=O)N1c2ccc(-c3cnn(C4CCNCC4)c3)c(Oc3cccc(Cl)c3C#N)c2CC[C@@H]1C [I-149, (S)-methyl 5-(3-chloro-2-cyanophenoxy)-2-methyl-6-(1-(piperidin-4-yl)-1H-pyrazol-4-yl)-3,4-dihydroquinoline-1(2H)-carboxylate] |
| 100 to 1000 nM | < 500 nM | < 50 nM | COC(=O)N1c2ccc(-c3cnn(C4CCNCC4)c3)c(Oc3ccc(F)cc3)c2CC[C@@H]1C [I-158, (S)-methyl 5-(4-fluorophenoxy)-2-methyl-6-(1-(piperidin-4-yl)-1H-pyrazol-4-yl)-3,4-dihydroquinoline-1(2H)-carboxylate] |

Second part, the compound before the results:

| SMILES | IC50 [1] | IC50 [2] | IC50 [3] |
| --- | --- | --- | --- |
| COC(=O)N1c2ccc(-c3cnn(C4CNC4)c3)c(Oc3ccccc3C#N)c2CC[C@@H]1C [I-138, (S)-methyl 6-(1-(azetidin-3-yl)-1H-pyrazol-4-yl)-5-(2-cyanophenoxy)-2-methyl-3,4-dihydroquinoline-1(2H)-carboxylate] | 100 to 1000 nM | < 500 nM | < 50 nM |
| COC(=O)N1c2ccc(-c3cnn(C4CNC4)c3)c(Oc3cccc(F)c3C#N)c2CC[C@@H]1C [I-139, (S)-methyl 6-(1-(azetidin-3-yl)-1H-pyrazol-4-yl)-5-(2-cyano-3-fluorophenoxy)-2-methyl-3,4-dihydroquinoline-1(2H)-carboxylate] | 100 to 1000 nM | < 500 nM | < 50 nM |
| CC(=O)N1c2ccc(-c3cnn(C4CCNCC4)c3)c(Oc3ccc(C#N)cc3)c2CC[C@@H]1C [I-140, (S)-4-(1-acetyl-2-methyl-6-(1-(piperidin-4-yl)-1H-pyrazol-4-yl)-1,2,3,4-tetrahydroquinolin-5-yloxy)benzonitrile] | 100 to 1000 nM | < 500 nM | < 50 nM |
| CC(=O)N1c2ccc(-c3cnn(C4CCNCC4)c3)c(Oc3ncccc3C(F)(F)F)c2CC[C@@H]1C [I-141, (S)-1-(2-methyl-6-(1-(piperidin-4-yl)-1H-pyrazol-4-yl)-5-(3-(trifluoromethyl)pyridin-2-yloxy)-3,4-dihydroquinolin-1(2H)-yl)ethanone] | 100 to 1000 nM | < 500 nM | < 50 nM |
| CC(=O)N1c2ccc(-c3cnn(C4CCNCC4)c3)c(Oc3ncccc3Cl)c2CC[C@@H]1C [I-142, (S)-1-(5-(3-chloropyridin-2-yloxy)-2-methyl-6-(1-(piperidin-4-yl)-1H-pyrazol-4-yl)-3,4-dihydroquinolin-1 (2H)-yl)ethanone] | 100 to 1000 nM | < 500 nM | 50 to 500 nM |
| CC(=O)N1c2ccc(-c3cnn(C4CCNCC4)c3)c(Oc3ncccc3C#N)c2CC[C@@H]1C [I-143, (S)-2-(1-acetyl-2-methyl-6-(1-(piperidin-4-yl)-1H-pyrazol-4-yl)-1,2,3,4-tetrahydroquinolin-5-yloxy)nicotinonitrile] | 100 to 1000 nM | < 500 nM | 50 to 500 nM |
| CC(=O)N1c2ccc(-c3cnn(C4CCNCC4)c3)c(Oc3ncc(C)cn3)c2CC[C@@H]1C [I-144, (S)-1-(2-methyl-5-(5-methylpyrimidin-2-yloxy)-6-(1-(piperidin-4-yl)-1H-pyrazol-4-yl)-3,4-dihydroquinolin-1 (2H)-yl)ethanone] | 100 to 1000 nM | < 500 nM | < 50 nM |
| CC(=O)N1c2ccc(-c3cnn(C4CCNCC4)c3)c(Oc3cnccn3)c2CC[C@@H]1C [I-145, (S)-1-(2-methyl-6-(1-(piperidin-4-yl)-1H-pyrazol-4-yl)-5-(pyrazin-2-yloxy)-3,4-dihydroquinolin-1(2H)-yl)ethanone] | 100 to 1000 nM | < 500 nM | < 50 nM |
| COC(=O)N1c2ccc(-c3cnn(C4CCNCC4)c3)c(Oc3ccc(C#N)cc3)c2CC[C@@H]1C [I-146, (S)-methyl 5-(4-cyanophenoxy)-2-methyl-6-(1-(piperidin-4-yl)-1H-pyrazol-4-yl)-3,4-dihydroquinoline-1(2H)-carboxylate] | 100 to 1000 nM | < 500 nM | 50 to 500 nM |
| C[C@H]1CCc2c(ccc(-c3cnn(C4CCNCC4)c3)c2Oc2ccccc2C#N)N1C(=O)C1CC1 [I-150, (S)-2-(1-(cyclopropanecarbonyl)-2-methyl-6-(1-(piperidin-4-yl)-1H-pyrazol-4-yl)-1,2,3,4-tetrahydroquinolin-5-yloxy)benzonitrile] | 100 to 1000 nM | < 500 nM | < 50 nM |
| C[C@H]1CCc2c(ccc(-c3cnn(C4CCNCC4)c3)c2Oc2cccc(F)c2C#N)N1C(=O)C1CC1 [I-151, (S)-2-(1-(cyclopropanecarbonyl)-2-methyl-6-(1-(piperidin-4-yl)-1H-pyrazol-4-yl)-1,2,3,4-tetrahydroquinolin-5-yloxy)-6-fluorobenzonitrile] | 100 to 1000 nM | < 500 nM | < 50 nM |
| C[C@H]1CCc2c(ccc(-c3cnn(C4CCNCC4)c3)c2Oc2ccc(C#N)cc2F)N1C(=O)C1CC1 [I-152, (S)-4-(1-(cyclopropanecarbonyl)-2-methyl-6-(1-(piperidin-4-yl)-1H-pyrazol-4-yl)-1,2,3,4-tetrahydroquinolin-5-yloxy)-3-fluorobenzonitrile] | 100 to 1000 nM | < 500 nM | < 50 nM |
| CC(=O)N1c2ccc(-c3cnn(C4CC4)c3)c(Oc3ccccc3C#N)c2CC[C@@H]1C [I-153, (S)-2-(1-acetyl-6-(1-cyclopropyl-1H-pyrazol-4-yl)-2-methyl-1,2,3,4-tetrahydroquinolin-5-yloxy)benzonitrile] | 100 to 1000 nM | < 500 nM | < 50 nM |
| CC(=O)N1c2ccc(-c3cnn(C4CCNCC4)c3)c(Oc3ccc(C(N)=O)cc3)c2CC[C@@H]1C [I-155, (S)-4-(1-acetyl-2-methyl-6-(1-(piperidin-4-yl)-1H-pyrazol-4-yl)-1,2,3,4-tetrahydroquinolin-5-yloxy)benzamide] | 100 to 1000 nM | > 1000 nM | 50 to 500 nM |
| CC(=O)N1c2ccc(-c3cnn(C4CCNCC4)c3)c(Oc3ccccc3Cl)c2CC[C@@H]1C [I-157, (S)-1-(5-(2-chlorophenoxy)-2-methyl-6-(1-(piperidin-4-yl)-1H-pyrazol-4-yl)-3,4-dihydroquinolin-1(2H)-yl)ethanone] | 100 to 1000 nM | < 500 nM | < 50 nM |
| COC(=O)N1c2ccc(-c3cnn(C4CCNCC4)c3)c(Oc3ccc(Cl)cc3)c2CC[C@@H]1C [I-159, (S)-methyl 5-(4-chlorophenoxy)-2-methyl-6-(1-(piperidin-4-yl)-1H-pyrazol-4-yl)-3,4-dihydroquinoline-1(2H)-carboxylate] | 100 to 1000 nM | < 500 nM | < 50 nM |
